Results published in patent EP0373645A1, “Imidazolyl and pyridyl derivatives of phenyl substituted 1,4 -dihyropyridines and process for their preparation” (priority 1988, dated 1990).
Each block holds one compound with its values, some of them ahead of it.

How the values were obtained:
[1] = Orientative acute oral toxicity; design: species or system Mice and rats; details: in vivo; single oral administration, assessed on the seventh day after treatment; read-out: orientative acute toxicity (LD₅₀)
Procedure: The toxicity of the compounds of the invention is negligible, so that they can be safely used in therapy. Mice and rats which had been deprived of food for nine hours were treated orally with single administrations of increasing doses of compounds of the invention, then housed and normally fed. For example the orientative acute toxicity (LD₅₀) of the compound FCE 24265, assessed on the seventh day after treatment, was higher than 800 mg/kg.

TxA₂ Synthase [2] = molecular target: T1, TxA₂ Synthase (Rattus norvegicus, UniProt P49430); assay: Ex vivo inhibition of TxA₂ synthesis in serum after oral administration; details: 1 h, p.o., blood taken one hour after treatment, read-out: ED₅₀ inhibition of the synthesis of TxA₂ (ex vivo)
T1 construct: Blood was withdrawn from the abdominal aorta of the animals; from tissue; host or cells: whole blood of reduced renal mass (RRM) rats, allowed to clot 1 h at 37°C
T1 sequence (P49430 1-533): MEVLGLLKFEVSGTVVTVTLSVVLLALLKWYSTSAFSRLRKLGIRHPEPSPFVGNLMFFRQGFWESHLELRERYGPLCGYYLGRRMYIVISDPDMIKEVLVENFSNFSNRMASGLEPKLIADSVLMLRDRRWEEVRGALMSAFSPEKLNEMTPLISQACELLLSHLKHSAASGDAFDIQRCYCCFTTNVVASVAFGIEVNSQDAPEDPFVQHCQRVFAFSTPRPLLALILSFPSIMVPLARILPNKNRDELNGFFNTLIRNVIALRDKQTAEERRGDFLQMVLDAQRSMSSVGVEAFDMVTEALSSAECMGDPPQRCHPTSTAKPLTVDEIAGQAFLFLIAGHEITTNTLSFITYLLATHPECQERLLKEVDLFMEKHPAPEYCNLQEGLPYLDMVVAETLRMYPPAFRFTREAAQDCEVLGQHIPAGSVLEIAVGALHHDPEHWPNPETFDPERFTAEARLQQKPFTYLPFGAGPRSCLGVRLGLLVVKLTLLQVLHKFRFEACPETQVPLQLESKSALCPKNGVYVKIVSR
Procedure: (§1) Their ability to inhibit TxA₂ Synthase activity (as reflected by TxB₂ generated in whole blood during clotting or in isolated glomeruli) was tested in vitro and ex vivo in the rat.
The ex vivo experiments were performed as follows.
The compounds were orally administered to RRM rats by gavage at the dose of 2.5 mg/kg in 0.5% methocel. One hour after treatment rats were anaesthetised with ether, blood was withdrawn from the abdominal aorta and allowed to clot for 1 h at 37°C. Samples were then centrifuged, serum collected and stored at -20°C until assayed.

TxA₂ Synthase [3] = molecular target: T1, TxA₂ Synthase; assay: In vitro effect on TxB₂ synthesis in isolated glomeruli (RIA); format: cell-based
Procedure: as §1
(§2) The effect of the compounds on TxA₂ synthesis was evaluated in serum and in glomeruli isolated from kidney cortex of reduced renal mass rats (RRM). Ablation of >70% of renal mass in the rat results in hypertension, proteinuria and glomerular sclerosis of the remnant kidney. Rats with a remnant kidney have increased excretion of thromboxane in the urine when compared with normal rats [Purkerson et al.-Proc.Natl.Acad.Sci.USA 82, 193, 1985].
The isolation of glomeruli was performed as previously described [Patrignani et al., - J. Pharm. Exp. Ther. 228, 2, 472, 1984]
The isolated glomeruli of 4 rats were pooled, suspended in modified Krebs buffer (pH 7.3) and divided into portions of 1 ml each containing a concentration of the test compounds or of the reference compounds.
The TxA₂ synthesis was induced by incubating the glomeruli under shaking at 37°C for 1 h. At that time the incubation was stopped by centrifugation at +4°C, the supernatant collected and stored at -20°C until assayed by RIA.

TxA₂ Synthase [4] = molecular target: T1, TxA₂ Synthase; assay: In vitro effect on TxB₂ synthesis in whole blood during clotting (RIA); format: cell-based; details: for times more potent than the reference compound ASA (TxA₂ synthesis in whole blood): ratio to ASA; for times more potent than the reference compound Dazoxiben (TxA₂ synthesis in whole blood): ratio to Dazoxiben
Procedure: as §1, §2
Blood was withdrawn from the abdominal aorta of the animals under light ether anesthesia.
Samples were then allowed to clot for 1 h at 37°C, centrifuged at 3000 rpm for 10 min, serum collected and stored at -20°C until assayed. TxB₂ levels were determined by RIA according to previously described procedures [Patrono et al.-Thromb.Res. 17, 3/4, 317, 1980] using highly specific antibody.

[5] = test system: chronically cannulated hypertensive rats (SHR); assay: Antihypertensive activity, intra-arterial blood pressure and heart rate; format: in vivo
Procedure: The antihypertensive activity of the compounds of the invention was tested in chronically cannulated hypertensive rats (SHR).
For intra-arterial measurements of blood pressure (MBP) catheters (PE50 Clay Adams) were implanted in the right carotid artery under alothane anesthesia. Two days after surgery the animals were placed in a Ballman cage and the arterial catheter was connected to a stathman P23 Db pressure transducer and a Beckman multichannel R611 BP recorder for continuous monitoring of MBP and heart rate (HR).
Measurements were made predrug and 0.5, 1, 2, 4, 6 h after drug or vehicle (methocel 0.5% w/v).

[6] = RRM rats whole blood, clotting 1 h at 37°C, read-out: In vitro effect on TxB₂ synthesis in RRM rats whole blood, IC₅₀

Compound: CCOC(=O)C1=C(C)NC(C)=C(C(=O)OCC)C1c1cccc(-n2ccnc2)c1 [FCE 24265, 1,4-dihydro-2,6-dimethyl-4-[3-(1H-imidazol-1-yl)phenyl]-3,5-pyridinedicarboxylic acid, diethyl ester]
- LD50 at 168 h [1]: > 800 mg/kg
- ED50 (TxA₂ Synthase [2]): 2.3 mg/kg
- IC50 (TxA₂ Synthase [3]; RRM rats isolated glomeruli, incubation 1 h at 37°C, read-out: In vitro effect on TxB₂ synthesis in RRM rats glomeruli, IC₅₀): 0.036 µM
- times more potent than ASA on glomerular TxB₂ synthesis (TxA₂ Synthase [3]; glomeruli, ratio to ASA): ~4,000 times
- times more potent than Dazoxiben on glomerular TxB₂ synthesis (TxA₂ Synthase [3]; glomeruli, ratio to Dazoxiben): 4.7 times
- IC50 (TxA₂ Synthase [4]; [6]): 170 nM
- times more potent than the reference compound ASA (TxA₂ synthesis in whole blood) (TxA₂ Synthase [4]): 247 times
- times more potent than the reference compound Dazoxiben (TxA₂ synthesis in whole blood) (TxA₂ Synthase [4]): 7 times
- changes in heart rate [5]: No changes
- time until blood pressure returned toward normal levels ([5]; after treatment): 3 h
- peak effect on blood pressure (MBP) ([5]; peak reached at 30 minutes postdrug): -30 ± 4 mm Hg

Compound: CC(=O)Oc1ccccc1C(=O)O [ASA, Acetylsalicylic acid, reference compound]
- IC50 (TxA₂ Synthase [3]): 140 µM
- IC50 (TxA₂ Synthase [4]): 42000 nM

- IC50 (TxA₂ Synthase [4]; [6]): 450 nM
- times more potent than the reference compound ASA (TxA₂ synthesis in whole blood) (TxA₂ Synthase [4]): 90 times
- times more potent than the reference compound Dazoxiben (TxA₂ synthesis in whole blood) (TxA₂ Synthase [4]): 3 times
Compound: CCOC(=O)C1=C(C)NC(C)=C(C(=O)OCC)C1c1cccc(-c2cccnc2)c1 [FCE 26055, 1,4-dihydro-2,6-dimethyl-4-[3-(3-pyridyl)phenyl]-3,5-pyridinedicarboxylic acid, diethyl ester]
